Measured values as given in the CheMixHub viscosity set.

Assay: xn = mol fraction of the nth substance listed

CCCN + CCCCOCCOCCO
298.15 K, 101 kPa
Details | viscosity [mPa·s]
x2 = 0.0104 | 0.381
x2 = 0.0212 | 0.404
x2 = 0.0381 | 0.44
x2 = 0.0898 | 0.562
x2 = 0.1063 | 0.602
x2 = 0.129 | 0.668
x2 = 0.164 | 0.78
x2 = 0.1944 | 0.884
x2 = 0.2231 | 1.003
x2 = 0.2623 | 1.178
x2 = 0.3079 | 1.4
x2 = 0.327 | 1.505
x2 = 0.3856 | 1.851
x2 = 0.4114 | 2.011
x2 = 0.4443 | 2.23
x2 = 0.4782 | 2.46
x2 = 0.5424 | 2.9
x2 = 0.5729 | 3.115
x2 = 0.6163 | 3.404
x2 = 0.6419 | 3.571
x2 = 0.6779 | 3.79
x2 = 0.7205 | 4.031
x2 = 0.7508 | 4.193
x2 = 0.7957 | 4.402
x2 = 0.8278 | 4.535
x2 = 0.8577 | 4.647
x2 = 0.8744 | 4.703
x2 = 0.9181 | 4.837
x2 = 0.9513 | 4.925
x2 = 0.9752 | 4.986

CCCCOC(C)=O + CO
303.15 K, 101.33 kPa
Details | viscosity [mPa·s]
x1 = 0.0963 | 0.528
x1 = 0.1331 | 0.533
x1 = 0.1759 | 0.539
x1 = 0.2825 | 0.552
x1 = 0.3931 | 0.566
x1 = 0.4804 | 0.577
x1 = 0.5458 | 0.585
x1 = 0.6116 | 0.592
x1 = 0.6478 | 0.596
x1 = 0.7391 | 0.606
x1 = 0.8007 | 0.612
x1 = 0.8409 | 0.616
x1 = 0.8858 | 0.621
x1 = 0.924 | 0.624

CCCOC(=O)c1ccccc1 + CCCCCCC
viscosity [mPa·s], 101 kPa
Details | x1 = 0.099 | x1 = 0.1965 | x1 = 0.2952 | x1 = 0.395 | x1 = 0.4959 | x1 = 0.5924 | x1 = 0.6991 | x1 = 0.7981 | x1 = 0.8973
298.15 K | 0.444 | 0.516 | 0.603 | 0.707 | 0.842 | 1.017 | 1.254 | 1.526 | 1.853
308.15 K | 0.399 | 0.466 | 0.531 | 0.614 | 0.734 | 0.874 | 1.051 | 1.248 | 1.525
318.15 K | 0.358 | 0.408 | 0.472 | 0.55 | 0.638 | 0.754 | 0.897 | 1.064 | 1.266
